# Laboratory results: PubChem BioAssay AID248 (DTP/NCI, 2004)
# Several values for one entry are separate records, joined by “and”; a condition that tells them apart may be missing. Equal values may be shown once. Toxic doses and inconclusive results are not listed.
# Test system: L1210 leukemia ip in BDF1 mice, survival T/C
# Test: NCI In Vivo Anticancer Drug Screen. Data for tumor model L1210 Leukemia (intraperitoneal) in B6D2F1 (BDF1) mice
# Conditions: endpoint: mean survival time, higher = longer survival
# In short: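 Each compound was tested against a transplantable tumor grown in mice. The endpoint was survival, with treated animals benchmarked against vehicle controls as a simple ratio.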
# [1] = dose: 100.0 mg/kg/injection, schedule: Q04DX003 (ip), vehicle: Klucel (hydroxypropylcellulose) (HPC)
# [2] = dose: 100.0 mg/kg/injection, schedule: Q01DX009 (ip), vehicle: Klucel (hydroxypropylcellulose) (HPC)
# [3] = dose: 200.0 mg/kg/injection, schedule: Q01DX009 (ip), vehicle: Klucel (hydroxypropylcellulose) (HPC)
# [4] = dose: 200.0 mg/kg/injection, schedule: Q04DX003 (ip), vehicle: Klucel (hydroxypropylcellulose) (HPC)
# [5] = dose: 400.0 mg/kg/injection, schedule: Q01DX009 (ip), vehicle: Klucel (hydroxypropylcellulose) (HPC)
# [6] = dose: 400.0 mg/kg/injection, schedule: Q04DX003 (ip), vehicle: Klucel (hydroxypropylcellulose) (HPC)
# [7] = dose: 50.0 mg/kg/injection, schedule: Q01DX001 (ip), vehicle: saline
# [8] = dose: 100.0 mg/kg/injection, schedule: Q01DX001 (ip), vehicle: saline
# [9] = dose: 200.0 mg/kg/injection, schedule: Q01DX001 (ip), vehicle: saline
# [10] = dose: 400.0 mg/kg/injection, schedule: Q01DX001 (ip), vehicle: saline
# [11] = dose: 100.0 mg/kg/injection, schedule: Q04DX002 (ip), vehicle: Klucel (hydroxypropylcellulose) (HPC)
# [12] = dose: 200.0 mg/kg/injection, schedule: Q04DX002 (ip), vehicle: Klucel (hydroxypropylcellulose) (HPC)
# [13] = dose: 400.0 mg/kg/injection, schedule: Q04DX002 (ip), vehicle: Klucel (hydroxypropylcellulose) (HPC)
# [14] = dose: 100.0 mg/kg/injection, schedule: Q04DX003 (ip), vehicle: saline
# [15] = dose: 200.0 mg/kg/injection, schedule: Q04DX003 (ip), vehicle: saline
# [16] = dose: 400.0 mg/kg/injection, schedule: Q04DX003 (ip), vehicle: saline
compound,measurement,setting,value
CC(C)c1ccc(/C=C2\C=Nc3ccccc32)cc1,T/C,"dose: 100.0 mg/kg/injection, schedule: Q04DX002 (ip), vehicle: gum acacia",95 % of control
same,T/C,"dose: 200.0 mg/kg/injection, schedule: Q04DX002 (ip), vehicle: gum acacia",92 % of control
same,T/C,"dose: 400.0 mg/kg/injection, schedule: Q04DX002 (ip), vehicle: gum acacia",95 % of control
O=C(O)c1cc(Cl)c(Cl)s1,T/C,"dose: 25.0 mg/kg/injection, schedule: Q04DX003 (ip), vehicle: Klucel (hydroxypropylcellulose) (HPC)",101 % of control
same,T/C,"dose: 50.0 mg/kg/injection, schedule: Q04DX003 (ip), vehicle: Klucel (hydroxypropylcellulose) (HPC)",100 % of control
same,T/C,[1],103 % of control
COc1ccc(/C=C(\NC(C)=O)C(=O)O)cc1,T/C,[2],104 % of control
same,T/C,[1],100 % of control
same,T/C,[3],97 % of control
same,T/C,[4],100 % of control
same,T/C,[5],98 % of control
same,T/C,[6],112 % of control
CC(C)(CN)CCBr,T/C,[7],95 % of control
same,T/C,[8],88 % of control
same,T/C,[9],101 % of control
same,T/C,[10],92 % of control
O=C1NC(=O)C2C3CCC(O3)C12 (stereo not given),T/C,"dose: 25.0 mg/kg/injection, schedule: Q04DX002 (ip), vehicle: Klucel (hydroxypropylcellulose) (HPC)",92 % of control and 98 % of control
same,T/C,"dose: 50.0 mg/kg/injection, schedule: Q04DX002 (ip), vehicle: Klucel (hydroxypropylcellulose) (HPC)",96 % of control and 102 % of control
same,T/C,"dose: 55.0 mg/kg/injection, schedule: Q01DX Z (ip), vehicle: methylcellulose (MC)",98 % of control
same,T/C,"dose: 83.0 mg/kg/injection, schedule: Q01DX Z (ip), vehicle: methylcellulose (MC)",105 % of control
same,T/C,[11],103 % of control and 98 % of control and 86 % of control
same,T/C,"dose: 125.0 mg/kg/injection, schedule: Q01DX Z (ip), vehicle: methylcellulose (MC)",94 % of control
same,T/C,[12],106 % of control
N=C(N)SC12CC3CC(CC(C3)C1)C2,T/C,"dose: 10.0 mg/kg/injection, schedule: Q04DX002 (ip), vehicle: Klucel (hydroxypropylcellulose) (HPC)",94 % of control
same,T/C,"dose: 20.0 mg/kg/injection, schedule: Q04DX002 (ip), vehicle: Klucel (hydroxypropylcellulose) (HPC)",87 % of control
same,T/C,"dose: 40.0 mg/kg/injection, schedule: Q04DX002 (ip), vehicle: Klucel (hydroxypropylcellulose) (HPC)",94 % of control
c1coc(CNc2cc(NCc3ccco3)ncn2)c1,T/C,[2],98 % of control
same,T/C,[3],95 % of control
COC(=O)c1c[nH]c(=O)cc1O,T/C,[8],101 % of control
same,T/C,[9],98 % of control
same,T/C,[10],98 % of control
CCOC(=O)N(CCN1C(=O)c2ccccc2C1=O)c1cc(OC)ccc1OC,T/C,[11],100 % of control
same,T/C,[12],93 % of control
same,T/C,[13],89 % of control
COC(=O)c1ccccc1NC(c1ccccn1)c1ccc2cccnc2c1O (stereo not given),T/C,"dose: 125.0 mg/kg/injection, schedule: Q01DX Z (ip), vehicle: carboxymethylcellulose (CMC)",108 % of control
same,T/C,"dose: 250.0 mg/kg/injection, schedule: Q01DX Z (ip), vehicle: carboxymethylcellulose (CMC)",102 % of control
same,T/C,"dose: 500.0 mg/kg/injection, schedule: Q01DX Z (ip), vehicle: carboxymethylcellulose (CMC)",101 % of control
O=C(Nc1ccccn1)Nc1cccc2ccccc12,T/C,[11],103 % of control
same,T/C,[12],97 % of control
same,T/C,[13],87 % of control
CC1(c2ccc(Cl)cc2)NC(=O)N(CC(=O)Nc2ccccc2)C1=O (stereo not given),T/C,"dose: 100.0 mg/kg/injection, schedule: Q04DX003 (ip), vehicle: acetone",101 % of control
same,T/C,"dose: 200.0 mg/kg/injection, schedule: Q04DX003 (ip), vehicle: acetone",90 % of control
same,T/C,"dose: 400.0 mg/kg/injection, schedule: Q04DX003 (ip), vehicle: acetone",93 % of control
C=CCOCC(C)OC(=O)C(C)C (stereo not given),T/C,[8],107 % of control
same,T/C,[9],94 % of control
same,T/C,[10],90 % of control
OCC(O)COc1ccc(OCc2ccccc2)cc1 (stereo not given),T/C,"dose: 12.5 mg/kg/injection, schedule: Q01DX009 (ip), vehicle: Klucel (hydroxypropylcellulose) (HPC)",94 % of control
same,T/C,"dose: 25.0 mg/kg/injection, schedule: Q01DX009 (ip), vehicle: Klucel (hydroxypropylcellulose) (HPC)",102 % of control
same,T/C,"dose: 50.0 mg/kg/injection, schedule: Q01DX009 (ip), vehicle: Klucel (hydroxypropylcellulose) (HPC)",93 % of control and 87 % of control
Cc1ccc(C)n1-c1ccccc1C(=O)O,T/C,[2],95 % of control
same,T/C,[1],93 % of control
same,T/C,[3],107 % of control
same,T/C,[4],106 % of control
same,T/C,[5],101 % of control
same,T/C,[6],101 % of control
CN(C)C(=O)/C=C/C(=O)N(C)C,T/C,[14],103 % of control
same,T/C,[15],103 % of control
same,T/C,[16],108 % of control
COC(=O)C1C2C=CC(CC2)C1(C)C(=O)OC (stereo not given),T/C,"dose: 100.0 mg/kg/injection, schedule: Q04DX003 (ip), vehicle: saline with Tween-80",95 % of control
same,T/C,"dose: 200.0 mg/kg/injection, schedule: Q04DX003 (ip), vehicle: saline with Tween-80",101 % of control
same,T/C,"dose: 400.0 mg/kg/injection, schedule: Q04DX003 (ip), vehicle: saline with Tween-80",90 % of control
CCN(CC)C(=O)CSC#N,T/C,"dose: 6.25 mg/kg/injection, schedule: Q04DX002 (ip), vehicle: other",88 % of control
same,T/C,"dose: 12.5 mg/kg/injection, schedule: Q04DX002 (ip), vehicle: other",103 % of control
CCC(C)(C=O)C(C)=O (stereo not given),T/C,[14],98 % of control
same,T/C,[15],96 % of control
same,T/C,[16],88 % of control
CCCC[n+]1[nH]oc(=O)c1C(=O)[O-],T/C,[1],98 % of control
COC(=O)c1cc(C)c(C)cc1N,T/C,[8],102 % of control
same,T/C,[9],96 % of control
same,T/C,[10],93 % of control
c1cc2c(c(NC3=NCCCS3)c1)CCCC2,T/C,[2],102 % of control
same,T/C,[1],97 % of control
same,T/C,[3],96 % of control
same,T/C,[4],95 % of control
same,T/C,[6],90 % of control
COc1ccc(C(=O)/C=C\c2ccc(OC)cc2O)cc1,T/C,[7],100 % of control
same,T/C,[8],103 % of control
same,T/C,[9],97 % of control
same,T/C,[10],103 % of control
C=CCN(CC=C)C(=O)CCN1CC1,T/C,"dose: 1.25 mg/kg/injection, schedule: Q01DX Z (ip), vehicle: saline",96 % of control
same,T/C,"dose: 2.5 mg/kg/injection, schedule: Q01DX Z (ip), vehicle: saline",96 % of control
same,T/C,"dose: 5.0 mg/kg/injection, schedule: Q01DX Z (ip), vehicle: saline",100 % of control
same,T/C,"dose: 10.0 mg/kg/injection, schedule: Q01DX Z (ip), vehicle: saline",98 % of control and 111 % of control
same,T/C,"dose: 10.0 mg/kg/injection, schedule: Q01DX Z (oral), vehicle: saline",108 % of control
same,T/C,"dose: 20.0 mg/kg/injection, schedule: Q01DX001 (ip), vehicle: saline",103 % of control
same,T/C,"dose: 20.0 mg/kg/injection, schedule: Q01DX Z (ip), vehicle: saline",96 % of control
same,T/C,"dose: 20.0 mg/kg/injection, schedule: Q01DX Z (oral), vehicle: saline",117 % of control
same,T/C,"dose: 40.0 mg/kg/injection, schedule: Q01DX001 (ip), vehicle: saline",115 % of control
same,T/C,"dose: 40.0 mg/kg/injection, schedule: Q01DX Z (oral), vehicle: saline",86 % of control
COc1ccccc1N=C(C)CC(C)=O,T/C,"dose: 100.0 mg/kg/injection, schedule: Q01DX001 (ip), vehicle: Klucel (hydroxypropylcellulose) (HPC)",100 % of control
same,T/C,"dose: 200.0 mg/kg/injection, schedule: Q01DX001 (ip), vehicle: Klucel (hydroxypropylcellulose) (HPC)",91 % of control
same,T/C,"dose: 400.0 mg/kg/injection, schedule: Q01DX001 (ip), vehicle: Klucel (hydroxypropylcellulose) (HPC)",99 % of control
CN(N=O)C(=O)Nc1ccc(NC(=O)N(C)N=O)cc1,T/C,"dose: 30.0 mg/kg/injection, schedule: Q01DX Z (ip), vehicle: carboxymethylcellulose (CMC)",162 % of control
same,T/C,"dose: 40.0 mg/kg/injection, schedule: Q01DX Z (ip), vehicle: carboxymethylcellulose (CMC)",151 % of control
same,T/C,"dose: 45.0 mg/kg/injection, schedule: Q01DX001 (ip), vehicle: carboxymethylcellulose (CMC)",120 % of control
same,T/C,"dose: 50.0 mg/kg/injection, schedule: Q01DX Z (ip), vehicle: carboxymethylcellulose (CMC)",97 % of control
same,T/C,"dose: 360.0 mg/kg/injection, schedule: Q01DX001 (ip), vehicle: carboxymethylcellulose (CMC)",91 % of control
CC(=O)CC(=O)NCCN1CCN(C(=O)CC(C)=O)CC1,T/C,[8],93 % of control
same,T/C,[9],101 % of control
same,T/C,[10],98 % of control
